From the NIST ThermoML archive (doi:10.1021/acs.jced.6b00455)

Assay: mn = molality of the nth substance listed, in mol/kg
Settings: 101 kPa, Liquid, Alternating current cell with electrodes

C[N+](C)(C)CCO.O=C([O-])C(F)(F)C(F)(F)C(F)(F)C(F)(F)C(F)(F)C(F)(F)C(F)(F)F [(2-hydroxyethyl)trimethylammonium perfluorooctanoate] + O
Settings	electrical conductivity [S/m]
303.15 K, m1 = 0.003487	0.0256
303.15 K, m1 = 0.003599	0.0264
303.15 K, m1 = 0.003701	0.0271
303.15 K, m1 = 0.003815	0.0279
303.15 K, m1 = 0.003911	0.0285
303.15 K, m1 = 0.004027	0.0293
303.15 K, m1 = 0.004122	0.03
303.15 K, m1 = 0.004288	0.0311
303.15 K, m1 = 0.004393	0.0318
303.15 K, m1 = 0.004492	0.0325
303.15 K, m1 = 0.004585	0.0331
303.15 K, m1 = 0.004679	0.0337
303.15 K, m1 = 0.004785	0.0345
308.15 K, m1 = 6.9e-05	0.0006
308.15 K, m1 = 0.000131	0.0012
308.15 K, m1 = 0.000188	0.0016
308.15 K, m1 = 0.000233	0.002
308.15 K, m1 = 0.000278	0.0024
308.15 K, m1 = 0.000329	0.0029
308.15 K, m1 = 0.000372	0.0032
308.15 K, m1 = 0.000407	0.0035
308.15 K, m1 = 0.000451	0.0039
308.15 K, m1 = 0.000486	0.0043
308.15 K, m1 = 0.000545	0.0048
308.15 K, m1 = 0.000576	0.0051
308.15 K, m1 = 0.000628	0.0055
308.15 K, m1 = 0.000669	0.0059
308.15 K, m1 = 0.000706	0.0062
308.15 K, m1 = 0.000758	0.0067
308.15 K, m1 = 0.000796	0.007
308.15 K, m1 = 0.000831	0.0073
308.15 K, m1 = 0.000864	0.0076
308.15 K, m1 = 0.0009	0.0079
308.15 K, m1 = 0.000934	0.0082
308.15 K, m1 = 0.000981	0.0087
308.15 K, m1 = 0.001026	0.0091
308.15 K, m1 = 0.00106	0.0094
308.15 K, m1 = 0.001098	0.0097
308.15 K, m1 = 0.001138	0.0101
308.15 K, m1 = 0.001211	0.0107
308.15 K, m1 = 0.001265	0.0112
308.15 K, m1 = 0.001299	0.0114
308.15 K, m1 = 0.001362	0.012
308.15 K, m1 = 0.001397	0.0123
308.15 K, m1 = 0.001445	0.0127
308.15 K, m1 = 0.0015	0.0132
308.15 K, m1 = 0.001539	0.0136
308.15 K, m1 = 0.001701	0.015
308.15 K, m1 = 0.001808	0.0159
308.15 K, m1 = 0.001958	0.0173
308.15 K, m1 = 0.002148	0.0189
308.15 K, m1 = 0.002371	0.0209
308.15 K, m1 = 0.0025	0.022
308.15 K, m1 = 0.002602	0.0229
308.15 K, m1 = 0.002723	0.0239
308.15 K, m1 = 0.00288	0.0253
308.15 K, m1 = 0.003015	0.0265
308.15 K, m1 = 0.003126	0.0274
308.15 K, m1 = 0.00328	0.0287
308.15 K, m1 = 0.003401	0.0297
308.15 K, m1 = 0.003526	0.0308
308.15 K, m1 = 0.003657	0.0319
308.15 K, m1 = 0.003764	0.0328
308.15 K, m1 = 0.003883	0.0337
308.15 K, m1 = 0.003991	0.0346
308.15 K, m1 = 0.004106	0.0356
308.15 K, m1 = 0.00422	0.0365
308.15 K, m1 = 0.004341	0.0375
308.15 K, m1 = 0.004478	0.0386
308.15 K, m1 = 0.004597	0.0396
308.15 K, m1 = 0.004723	0.0405
313.15 K, m1 = 0.000143	0.0013
313.15 K, m1 = 0.000274	0.0026
313.15 K, m1 = 0.000394	0.0038
313.15 K, m1 = 0.000543	0.005
313.15 K, m1 = 0.00064	0.006
313.15 K, m1 = 0.000773	0.0073
313.15 K, m1 = 0.000904	0.0087
313.15 K, m1 = 0.001044	0.0101
313.15 K, m1 = 0.001221	0.012
313.15 K, m1 = 0.001372	0.0134
313.15 K, m1 = 0.001554	0.0149
313.15 K, m1 = 0.001697	0.0164
313.15 K, m1 = 0.001835	0.0178
313.15 K, m1 = 0.002088	0.02
313.15 K, m1 = 0.002327	0.0222
313.15 K, m1 = 0.002528	0.0242
313.15 K, m1 = 0.002879	0.0274
313.15 K, m1 = 0.003226	0.0306
313.15 K, m1 = 0.003438	0.0318
313.15 K, m1 = 0.003602	0.0333
313.15 K, m1 = 0.003774	0.035
313.15 K, m1 = 0.004014	0.037
313.15 K, m1 = 0.00417	0.0382
313.15 K, m1 = 0.004352	0.0397
313.15 K, m1 = 0.004528	0.0415
313.15 K, m1 = 0.004708	0.043
313.15 K, m1 = 0.004876	0.0446
313.15 K, m1 = 0.005072	0.0463
313.15 K, m1 = 0.005237	0.0477
